Laboratory results from patent publication US10167262B2, “Herbicidal substituted 3-arylpyrazoles” (FMC CORPORATION, priority 2014, dated 2019).

Columns and labels:
Experiment in all cases: Test E pre-/postemergence greenhouse test, plant response rating 0-100
Assay type in all cases: in vivo
[1] = system: Italian ryegrass (Lolium multiflorum); details: scale 0 to 100; for Ryegrass, Italian plant response rating: Preemergence
Procedure, shortened: (§1)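 Visual control score, 0–100 relative to untreated plants, recorded 14–21 days after spraying. Treatments: preemergence on silt loam seedbeds and postemergence at the 1- to 4-leaf stage, with compound in surfactant-containing solvent.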

corn (Zea mays) = details: scale 0 to 100; for Corn plant response rating: Preemergence
Procedure, shortened: as §1

[2] = system: barnyardgrass (Echinochloa crus-galli); details: scale 0 to 100; for Barnyardgrass plant response rating: Preemergence
Procedure, shortened: as §1

[3] = system: wild poinsettia (Euphorbia heterophylla); details: scale 0 to 100; for Poinsettia, Wild plant response rating: Preemergence
Procedure, shortened: as §1

[4] = system: dayflower (Virginia (VA) dayflower, Commelina virginica); details: scale 0 to 100; for Dayflower, VA plant response rating: Preemergence
Procedure, shortened: as §1

[5] = system: sandbur (southern sandbur, Cenchrus echinatus); details: scale 0 to 100; for Sandbur plant response rating: Preemergence
Procedure, shortened: as §1

[6] = system: palmer pigweed (Amaranthus palmeri); details: scale 0 to 100; for Pigweed, Palmer plant response rating: Preemergence
Procedure, shortened: as §1

[7] = system: waterhemp (common waterhemp, Amaranthus rudis); details: scale 0 to 100; for Waterhemp plant response rating: Preemergence
Procedure, shortened: as §1

soybean (Glycine max) = details: scale 0 to 100; for Soybean plant response rating: Preemergence
Procedure, shortened: as §1

[8] = system: arrowleaf sida (Sida rhombifolia); details: for Arrowleaf Sida plant response rating: Preemergence
Procedure, shortened: as §1

[9] = system: Brazilian crabgrass (Digitaria horizontalis); details: Digitaria horizontalis, post-emergence, Postemergence, scale 0 to 100, read-out: Plant response rating, Crabgrass, Brazil
Procedure, shortened: as §1

[10] = system: hairy beggarticks (Bidens pilosa); details: scale 0 to 100; for Beggarticks plant response rating: Preemergence
Procedure, shortened: as §1

O=C(c1ccccc1)c1cn(CO)nc1-c1cc(Cl)cc(Cl)c1 [Compound 15, [3-(3,5-dichlorophenyl)-1-(hydroxymethyl)-1H-pyrazol-4-yl]phenylmethanone]
0: Ryegrass, Italian plant response rating ([1]; 31 g ai/ha) | Ryegrass, Italian plant response rating ([1]; 62 g ai/ha) | Ryegrass, Italian plant response rating ([1]; 125 g ai/ha) | Ryegrass, Italian plant response rating ([1]; 250 g ai/ha) | Ryegrass, Italian plant response rating ([1]; 500 g ai/ha) | Corn plant response rating (corn (Zea mays); 31 g ai/ha) | Corn plant response rating (corn (Zea mays); 62 g ai/ha) | Corn plant response rating (corn (Zea mays); 125 g ai/ha) | Corn plant response rating (corn (Zea mays); 250 g ai/ha) | Corn plant response rating (corn (Zea mays); 500 g ai/ha) | Barnyardgrass plant response rating ([2]; 31 g ai/ha) | Barnyardgrass plant response rating ([2]; 62 g ai/ha) | Barnyardgrass plant response rating ([2]; 125 g ai/ha) | Barnyardgrass plant response rating ([2]; 250 g ai/ha) | Barnyardgrass plant response rating ([2]; 500 g ai/ha) | Poinsettia, Wild plant response rating ([3]; 125 g ai/ha) | Poinsettia, Wild plant response rating ([3]; 250 g ai/ha) | Poinsettia, Wild plant response rating ([3]; 500 g ai/ha) | Dayflower, VA plant response rating ([4]; 31 g ai/ha) | Dayflower, VA plant response rating ([4]; 62 g ai/ha) | Dayflower, VA plant response rating ([4]; 125 g ai/ha) | Dayflower, VA plant response rating ([4]; 500 g ai/ha) | Sandbur plant response rating ([5]; 31 g ai/ha) | Pigweed, Palmer plant response rating ([6]; 31 g ai/ha) | Pigweed, Palmer plant response rating ([6]; 62 g ai/ha) | Pigweed, Palmer plant response rating ([6]; 125 g ai/ha) | Waterhemp plant response rating ([7]; 31 g ai/ha) | Soybean plant response rating (soybean (Glycine max); 31 g ai/ha) | Soybean plant response rating (soybean (Glycine max); 62 g ai/ha) | Soybean plant response rating (soybean (Glycine max); 125 g ai/ha) | Soybean plant response rating (soybean (Glycine max); 250 g ai/ha) | Soybean plant response rating (soybean (Glycine max); 500 g ai/ha) | Beggarticks plant response rating ([10]; 31 g ai/ha) | Beggarticks plant response rating ([10]; 62 g ai/ha) | Beggarticks plant response rating ([10]; 125 g ai/ha)
75: Waterhemp plant response rating ([7]; 250 g ai/ha)
90%: pest or weed control at 62 g/ha ([8]; Sida rhombifolia, post-emergence, Postemergence, 62 g ai/ha, scale 0 to 100) | pest or weed control at 31 g/ha ([10]; Bidens pilosa, post-emergence, Postemergence, 31 g ai/ha)
35%: pest or weed control at 31 g/ha ([6]; Amaranthus palmeri, post-emergence, Postemergence, 31 g ai/ha)
40: Sandbur plant response rating ([5]; 250 g ai/ha)
100: Pigweed, Palmer plant response rating ([6]; 500 g ai/ha) | Waterhemp plant response rating ([7]; 500 g ai/ha) | Arrowleaf Sida plant response rating ([8]; 250 g ai/ha, scale 0 to 100)
95%: pest or weed control at 125 g/ha ([7]; Amaranthus tuberculatus, post-emergence, Postemergence, 125 g ai/ha)
35: Sandbur plant response rating ([5]; 500 g ai/ha)
25: Arrowleaf Sida plant response rating ([8]; 31 g ai/ha, scale 0 to 100) | Beggarticks plant response rating ([10]; 250 g ai/ha)
0%: pest or weed control at 31 g/ha ([1]; Lolium multiflorum, post-emergence, Postemergence, 31 g ai/ha) | pest or weed control at 62 g/ha ([1]; Lolium multiflorum, post-emergence, Postemergence, 62 g ai/ha) | pest or weed control at 125 g/ha ([1]; Lolium multiflorum, post-emergence, Postemergence, 125 g ai/ha) | pest or weed control at 250 g/ha ([1]; Lolium multiflorum, post-emergence, Postemergence, 250 g ai/ha) | pest or weed control at 500 g/ha ([1]; Lolium multiflorum, post-emergence, Postemergence, 500 g ai/ha) | Corn plant response rating (crop injury, 0 = no effect, 100 = complete kill) at 31 g/ha (corn (Zea mays); Zea mays, post-emergence, Postemergence, 31 g ai/ha) | Corn plant response rating (crop injury, 0 = no effect, 100 = complete kill) at 62 g/ha (corn (Zea mays); Zea mays, post-emergence, Postemergence, 62 g ai/ha) | Corn plant response rating (crop injury, 0 = no effect, 100 = complete kill) at 125 g/ha (corn (Zea mays); Zea mays, post-emergence, Postemergence, 125 g ai/ha) | Corn plant response rating (crop injury, 0 = no effect, 100 = complete kill) at 250 g/ha (corn (Zea mays); Zea mays, post-emergence, Postemergence, 250 g ai/ha) | Corn plant response rating (crop injury, 0 = no effect, 100 = complete kill) at 500 g/ha (corn (Zea mays); Zea mays, post-emergence, Postemergence, 500 g ai/ha) | pest or weed control at 31 g/ha ([2]; Echinochloa crus-galli, post-emergence, Postemergence, 31 g ai/ha) | pest or weed control at 62 g/ha ([2]; Echinochloa crus-galli, post-emergence, Postemergence, 62 g ai/ha) | pest or weed control at 125 g/ha ([2]; Echinochloa crus-galli, post-emergence, Postemergence, 125 g ai/ha) | pest or weed control at 250 g/ha ([2]; Echinochloa crus-galli, post-emergence, Postemergence, 250 g ai/ha) | pest or weed control at 500 g/ha ([2]; Echinochloa crus-galli, post-emergence, Postemergence, 500 g ai/ha) | pest or weed control at 31 g/ha ([3]; Euphorbia heterophylla, post-emergence, Postemergence, 31 g ai/ha, read-out: Plant response rating, Poinsettia, Wild) | pest or weed control at 62 g/ha ([3]; Euphorbia heterophylla, post-emergence, Postemergence, 62 g ai/ha, read-out: Plant response rating, Poinsettia, Wild) | pest or weed control at 125 g/ha ([3]; Euphorbia heterophylla, post-emergence, Postemergence, 125 g ai/ha, read-out: Plant response rating, Poinsettia, Wild) | pest or weed control at 250 g/ha ([3]; Euphorbia heterophylla, post-emergence, Postemergence, 250 g ai/ha, read-out: Plant response rating, Poinsettia, Wild) | pest or weed control at 500 g/ha ([3]; Euphorbia heterophylla, post-emergence, Postemergence, 500 g ai/ha, read-out: Plant response rating, Poinsettia, Wild) | pest or weed control at 31 g/ha ([4]; Commelina virginica, post-emergence, Postemergence, 31 g ai/ha) | pest or weed control at 62 g/ha ([4]; Commelina virginica, post-emergence, Postemergence, 62 g ai/ha) | pest or weed control at 125 g/ha ([4]; Commelina virginica, post-emergence, Postemergence, 125 g ai/ha) | pest or weed control at 250 g/ha ([4]; Commelina virginica, post-emergence, Postemergence, 250 g ai/ha) | pest or weed control at 500 g/ha ([4]; Commelina virginica, post-emergence, Postemergence, 500 g ai/ha) | pest or weed control at 31 g/ha ([5]; Cenchrus echinatus, post-emergence, Postemergence, 31 g ai/ha) | pest or weed control at 62 g/ha ([5]; Cenchrus echinatus, post-emergence, Postemergence, 62 g ai/ha) | pest or weed control at 125 g/ha ([5]; Cenchrus echinatus, post-emergence, Postemergence, 125 g ai/ha) | pest or weed control at 250 g/ha ([5]; Cenchrus echinatus, post-emergence, Postemergence, 250 g ai/ha) | pest or weed control at 500 g/ha ([5]; Cenchrus echinatus, post-emergence, Postemergence, 500 g ai/ha) | plant injury at 31 g/ha (soybean (Glycine max); Glycine max, post-emergence, Postemergence, 31 g ai/ha) | plant injury at 62 g/ha (soybean (Glycine max); Glycine max, post-emergence, Postemergence, 62 g ai/ha) | plant injury at 125 g/ha (soybean (Glycine max); Glycine max, post-emergence, Postemergence, 125 g ai/ha) | plant injury at 250 g/ha (soybean (Glycine max); Glycine max, post-emergence, Postemergence, 250 g ai/ha) | plant injury at 500 g/ha (soybean (Glycine max); Glycine max, post-emergence, Postemergence, 500 g ai/ha) | pest or weed control at 31 g/ha ([9]; 31 g ai/ha) | pest or weed control at 62 g/ha ([9]; 62 g ai/ha) | pest or weed control at 125 g/ha ([9]; 125 g ai/ha) | pest or weed control at 250 g/ha ([9]; 250 g ai/ha) | pest or weed control at 500 g/ha ([9]; 500 g ai/ha)
98: Arrowleaf Sida plant response rating ([8]; 500 g ai/ha, scale 0 to 100)
50: Sandbur plant response rating ([5]; 125 g ai/ha)
70: Waterhemp plant response rating ([7]; 62 g ai/ha)
100%: pest or weed control at 500 g/ha ([6]; Amaranthus palmeri, post-emergence, Postemergence, 500 g ai/ha) | pest or weed control at 250 g/ha ([7]; Amaranthus tuberculatus, post-emergence, Postemergence, 250 g ai/ha) | pest or weed control at 500 g/ha ([7]; Amaranthus tuberculatus, post-emergence, Postemergence, 500 g ai/ha) | pest or weed control at 250 g/ha ([10]; Bidens pilosa, post-emergence, Postemergence, 250 g ai/ha)
30: Sandbur plant response rating ([5]; 62 g ai/ha) | Arrowleaf Sida plant response rating ([8]; 62 g ai/ha, scale 0 to 100)
65: Pigweed, Palmer plant response rating ([6]; 250 g ai/ha)
80%: pest or weed control at 31 g/ha ([7]; Amaranthus tuberculatus, post-emergence, Postemergence, 31 g ai/ha)
98%: pest or weed control at 250 g/ha ([6]; Amaranthus palmeri, post-emergence, Postemergence, 250 g ai/ha) | pest or weed control at 62 g/ha ([7]; Amaranthus tuberculatus, post-emergence, Postemergence, 62 g ai/ha) | pest or weed control at 31 g/ha ([8]; Sida rhombifolia, post-emergence, Postemergence, 31 g ai/ha, scale 0 to 100) | pest or weed control at 125 g/ha ([8]; Sida rhombifolia, post-emergence, Postemergence, 125 g ai/ha, scale 0 to 100) | pest or weed control at 250 g/ha ([8]; Sida rhombifolia, post-emergence, Postemergence, 250 g ai/ha, scale 0 to 100) | pest or weed control at 500 g/ha ([8]; Sida rhombifolia, post-emergence, Postemergence, 500 g ai/ha, scale 0 to 100 (0 no effect, 100 complete control)) | pest or weed control at 62 g/ha ([10]; Bidens pilosa, post-emergence, Postemergence, 62 g ai/ha) | pest or weed control at 125 g/ha ([10]; Bidens pilosa, post-emergence, Postemergence, 125 g ai/ha) | pest or weed control at 500 g/ha ([10]; Bidens pilosa, post-emergence, Postemergence, 500 g ai/ha)
75%: pest or weed control at 62 g/ha ([6]; Amaranthus palmeri, post-emergence, Postemergence, 62 g ai/ha) | pest or weed control at 125 g/ha ([6]; Amaranthus palmeri, post-emergence, Postemergence, 125 g ai/ha)
90: Waterhemp plant response rating ([7]; 125 g ai/ha) | Arrowleaf Sida plant response rating ([8]; 125 g ai/ha, scale 0 to 100)
80: Beggarticks plant response rating ([10]; 500 g ai/ha)
